According to the supplement of paper PMC8967900:

Assays:
Test in all cases: selective drug sensitivity score (sDSS, relative to normal bone marrow) (sDSS (score)); higher = more potent and effective on the cell line relative to normal bone marrow cells
Settings in all cases: 72 h
380 = system: 380
COG-LL-394h = system: COG-LL-394h
COG-LL-402h = system: COG-LL-402h
HPB-ALL = system: HPB-ALL
KARPAS-45 = system: KARPAS-45
KASUMI-10 = system: KASUMI-10
KOPN-8 = system: KOPN-8
MHH-CALL-2 = system: MHH-CALL-2
MHH-CALL-3 = system: MHH-CALL-3
MHH-CALL-4 = system: MHH-CALL-4
MN-60 = system: MN-60
MOLT-14 = system: MOLT-14
NALL-1 = system: NALL-1
NALM-16 = system: NALM-16
P30-OHKUBO = system: P30-OHKUBO
RCH-ACV = system: RCH-ACV
REH = system: REH
SEM cells = system: SEM cells
TANOUE = system: TANOUE
TMD5 = system: TMD5
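Note: ALL cell lines in 384-well plates, five doses spanning 10,000-fold, each plate scaled between vehicle and 100 µmol/L benzalkonium chloride controls, sDSS an adapted area-under-curve metric.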

Row | Compound | selective drug sensitivity score 380 | selective drug sensitivity score (COG-LL-394h) | selective drug sensitivity score (COG-LL-402h) | selective drug sensitivity score (HPB-ALL) | selective drug sensitivity score (KARPAS-45) | selective drug sensitivity score (KASUMI-10) | selective drug sensitivity score (KOPN-8) | selective drug sensitivity score (MHH-CALL-2) | selective drug sensitivity score (MHH-CALL-3) | selective drug sensitivity score (MHH-CALL-4) | selective drug sensitivity score (MN-60) | selective drug sensitivity score (MOLT-14) | selective drug sensitivity score (NALL-1) | selective drug sensitivity score (NALM-16) | selective drug sensitivity score (P30-OHKUBO) | selective drug sensitivity score (RCH-ACV) | selective drug sensitivity score (REH) | selective drug sensitivity score (SEM cells) | selective drug sensitivity score (TANOUE) | selective drug sensitivity score (TMD5)
1 | CC(C)N(C[C@H]1O[C@@H](n2cnc3c(N)ncnc32)[C@H](O)[C@@H]1O)[C@H]1C[C@@H](CCc2nc3cc(C(C)(C)C)ccc3[nH]2)C1 [Pinometostat] (top concentration 1000 nM) | 0 | 0 | 0 | 0 | 0 | 0 | 0 | 0 | 0 | 0 | 0.3 | 0 | 0 | 0 | 0 | 0 | 0 | 0 | 0 | 0
2 | CCCS(=O)(=O)Nc1ccc(F)c(C(=O)c2c[nH]c3ncc(-c4ccc(Cl)cc4)cc23)c1F [Vemurafenib] (top concentration 10000 nM) | -1.14 | -1.14 | -1.14 | -0.44 | 4.16 | -0.84 | 6.56 | 3.56 | -1.14 | -0.94 | -1.14 | 2.66 | -0.34 | -1.14 | 3.86 | 3.36 | 4.86 | 3.26 | -1.14 | 1.26
3 | O=C1Cc2cc(C(=O)NC3C[C@H]4CC[C@@H](C3)N4S(=O)(=O)CC3CCN(CCCC(F)(F)F)CC3)c(Cl)cc2N1 (stereo not given in full) (top concentration 10000 nM) | 0 | 0 | 0 | 0.5 | 0 | 0 | 0 | 0 | 0 | 0 | 0 | 0 | 0.6 | 0 | 0.5 | 0 | 3.5 | 0 | 0 | 2.6
4 | CC[C@@H]1C(=O)N(C)c2cnc(Nc3ccc(C(=O)NC4CCN(C)CC4)cc3OC)nc2N1C1CCCC1 [BI-2536] (top concentration 1000 nM) | 18.3 | 9.44 | 17.2 | 18.2 | 21.3 | 11.9 | 17 | 16.2 | 7.94 | 6.94 | -0.16 | 19 | -8.46 | 14.5 | 18.3 | 15.5 | 16.4 | 20.7 | -8.46 | 10.4
5 | O=C(c1ccc(C(=O)N2CCC(N3CCCC3)CC2)c(Nc2ccccc2)c1)N1CCC(N2CCCC2)CC1 [UNC1215] (top concentration 10000 nM) | 0 | 0 | 0 | 0 | 0 | 0 | 0 | 0 | 0 | 0 | 0 | 0 | 0 | 0 | 0 | 0 | 0.5 | 0 | 0 | 0
6 | C[C@@H](C(=O)O)c1ccc(-c2ccccc2)c(F)c1 [Tarenflurbil] (top concentration 10000 nM) | -0.16 | -0.16 | -0.16 | -0.16 | -0.16 | -0.16 | -0.16 | -0.16 | -0.16 | -0.16 | -0.16 | -0.16 | 4.34 | 0.04 | -0.16 | -0.16 | -0.06 | -0.16 | 4.74 | 3.64
7 | COc1cc(OC2CCN(C)CC2)ccc1Nc1ncc2c(n1)n(C1CCCC1)c(=O)n2C [AZ3146] (top concentration 10000 nM) | -2.86 | 1.04 | -0.56 | 3.14 | 0.94 | 3.64 | 4.54 | 1.94 | -4.16 | 0.64 | -0.16 | 2.04 | -2.16 | -2.56 | -0.06 | 1.24 | 1.14 | 2.04 | -4.16 | -4.06
8 | Cc1ccc(=O)n(-c2ccccc2)c1 [Pirfenidone] (top concentration 10000 nM) | 0 | 0 | 0 | 0 | 0 | 0 | 0 | 0 | 0 | 0 | 0 | 0 | 0 | 0 | 0 | 0 | 0 | 0 | 0 | 0
9 | CN(C)C/C=C/C(=O)Nc1cc2c(Nc3ccc(F)c(Cl)c3)ncnc2cc1O[C@H]1CCOC1 [Afatinib] (top concentration 1000 nM) | -0.84 | -0.84 | 0.46 | -0.84 | 1.06 | -0.84 | -0.74 | 0.16 | 3.96 | -0.84 | -0.84 | -0.84 | -0.84 | -0.84 | 1.56 | 1.26 | 5.46 | 0.96 | -0.84 | 3.56
